Experimental data as given in patent publication US20250297292A1, “ENZYMATIC REDUCTION OR REDUCTIVE AMINATION OF ARYL AND HETEROCYCLIC CARBOXYLIC ACIDS AND ALDEHYDES” (University of Delaware Newark, priority 2022, published 2025).

Key:
[1] = tested on: srCAR; experiment: Time course of enzymatic reduction of PET-derived carboxylates by srCAR with co-factor regeneration; type: biochemical, Segniliparus rotundus; conditions: 5 mM substrate, 3-enzyme NADPH and ATP regeneration system, N=3
Method: Endpoint in vitro assays showing the conversion of 5 mM TPA to TPAL after 24 h, with and without co-factor regenerating enzymes. […] Time course analysis of the enzymatic reduction of (i) 5 mM TPA, (ii) 5 mM 4FBA, (iii) 5 mM mmTPA and (iv) 5 mM MHET by CAR (FIG. 10B) All experiments included a 3-enzyme NADPH and ATP regeneration system. […] Sample size is N=3 and all data are shown as the mean±standard deviation. Error bars for certain points of the bioconversion of mmTPA to mm4FBA are smaller than the height of the symbol.

[2] = tested on: cvTA; experiment: Endpoint bioconversion of PET-derived aldehydes to amines by cvTA; type: biochemical, Chromobacterium violaceum; conditions: 10 mM substrate, 1.5 μM cvTA, 40 mM iPr-NH2, 24 h at 30° C., N=3
Method: cvTA reactions for the conversion of 4FBA and TPAL to their corresponding amine (FIG. 8A) Endpoint bioconversion of 10 mM 4FBA to pAMBA (FIG. 8B) and 10 mM TPAL to pXYL (FIG. 8C) by 1.5 μM cvTA in 100 mM HEPES pH 7.5, 400 μM PLP with 40 mM iPr-NH2 as the amine donor. […] Sample size is N=3 and all data are shown as the mean±standard deviation.

[3] = biological target: lipase from Candida antarctica (CALB) (Moesziomyces antarcticus, UniProt P41365); experiment: De-esterification of PET-derived ester aldehydes by lipase CALB; type: biochemical; conditions: 1 mM substrate, 24 h, 30° C.
lipase from Candida antarctica (CALB), sequence (P41365 26-342): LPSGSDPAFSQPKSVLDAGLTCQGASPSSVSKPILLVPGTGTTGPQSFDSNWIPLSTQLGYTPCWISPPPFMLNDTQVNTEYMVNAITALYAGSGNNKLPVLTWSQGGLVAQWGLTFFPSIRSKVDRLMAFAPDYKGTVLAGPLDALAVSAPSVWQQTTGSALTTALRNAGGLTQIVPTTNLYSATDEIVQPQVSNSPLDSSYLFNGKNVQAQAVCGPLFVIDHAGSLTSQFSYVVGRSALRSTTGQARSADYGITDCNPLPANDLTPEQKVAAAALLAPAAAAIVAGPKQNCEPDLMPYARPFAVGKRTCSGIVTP

[4] = tested on: CAR from Segniliparus rotundus (srCAR); experiment: CAR initial rate by NADPH oxidation (srCAR on PET-derived carboxylates); type: biochemical; conditions: average activity of srCAR on TPA, triplicate average; used to normalize the heatmap
Text: Using a sequence similarity network, CARs were sampled across distinct protein clusters to probe for activity on TPA. Of 22 cloned CARs, 17 expressed, with 9 of those CARs being unreported in literature (FIG. 9A). Anti-His6 Western blot of cell lysate from E. coli BL21 (DE3) harboring different CARs is shown by phylogeny (FIG. 9B). CARS were expressed under optimized conditions. The Western blot is comprised of two separate blots, which are delineated by the dashed lines and contain their own protein ladders. The first lane of the Western blot is a control lane consisting of lysate from E. coli BL21 (DE3) with no CAR plasmid. A band corresponding to the putative CAR from Streptomyces noursei was not detected during Western blot analysis but was confirmed in a separate experiment. The substrate specificity of CAR was evaluated on TPA, 4FBA, MHET and mmTPA, which are carboxylates related to PET depolymerization (FIG. 9C). In addition, pAMBA was tested, as it is a potential reaction intermediate in our proposed multienzyme cascade for the formation of amines. Under mild aqueous conditions, the conversion of CAR was tracked on TPA, 4FBA, MHET, mmTPA, pAMBA and the model aromatic acid, benzoic acid (FIG. 9D). Here, the oxidation of NADPH is measured as a proxy to aldehyde formation, as depletion of NADPH is linked to the consumption of substrate. […]

SMILES | over-reduction of aldehyde product to alcohol during reduction [1] | endpoint bioconversion of aldehyde to amine [2] | de-esterification by CALB [3] | also measured
O=Cc1ccc(C(=O)O)cc1 [4FBA, 4-formylbenzoic acid] | over-reduction of aldehydes to alcohols | proceeds to completion | – | –
O=Cc1ccc(C(=O)OCCO)cc1 [MHE-4FBA, 2-hydroxyethyl 4-formylbenzoate] | – | – | completely de-esterified | –
O=C(O)c1ccc(C(=O)O)cc1 [TPA, terephthalic acid] | over-reduction of aldehydes to alcohols | – | – | average initial rate (oxidation of NADPH as proxy to aldehyde formation) [4]: 4.80 mM NADPHox·h^−1·μMCAR^−1
O=Cc1ccc(C=O)cc1 [TPAL, terephthalaldehyde] | – | proceeds to completion | – | –
COC(=O)c1ccc(C=O)cc1 [mm4FBA, methyl 4-formylbenzoate] | – | – | completely de-esterified | –
COC(=O)c1ccc(C(=O)O)cc1 [mmTPA, monomethyl terephthalate] | decline in concentration over time to the purported alcohol product | – | – | –
